Results reported in PubChem BioAssay AID1963834 (Molecular Pharmacology Branch, DTP, NCI, 2024).

Test system: 873145-292-R-J1-PDC complex spheroid viability
Test: Anticancer human tumor 873145-292-R-J1-PDC patient-derived renal clear cell carcinoma cell line growth inhibition [POLQ]
Details: for IC50: curve of first compound; for viability, T/C: stronger effect = lower value
Procedure: Multicellular complex tumor spheroid response to Polymerase (POL) inhibitors (novobiocin, ART-558, RP6685) in combination with a variety of drugs and investigational agents in selected tumor cell lines
The POL inhibitors (novobiocin, ART-558, and RP6685) were evaluated both individually and in combination with standard of care and investigational anticancer small molecules within a complex spheroid model of solid tumors. . Complex spheroids include a stromal component modeled by human endothelial cells (HUVEC) and fibroblasts modeled by human mesenchymal stem cells (MSCs). The concentration ranges selected for each drug and investigational agent were based upon clinically achievable concentrations if the clinical Cmax of the agent was known.
Compounds. The drugs and investigational agents: novobiocin (NSC847541), ART-558 (NSC835418), RP-6685 (NSC848927), peposertib (NSC802822), ceralasertib (NSC780249), elimusertib (NSC800525), camonsertib (NSC841442), AZD-1390 (NSC803789), olaparib (NSC753686), talazoparib (NSC767125), rucaparib (NSC756644), sotorasib (NSC818433), MRTX-1133 (NSC836407), SN-38 (NSC673596), topotecan (NSC609699), epotoside (NSC141540), doxorubicin (NSC123127), gemcitabine (NSC613327), 5-fluorouracil (NSC19893), paclitaxel (NSC125973), vemurafenib (NSC761431), MSA-2 (NSC828583), SN-011 (NSC837082), adavosertib (NSC754352), prexasertib (NSC758257), carboplatin (NSC241240) and oxaliplatin (NSC266046), were obtained from the National Cancer Institute (NCI) Developmental Therapeutics Program Chemical Repository (21). The FDA-approved anticancer drug set is available from the Developmental Therapeutics Program at https://dtp.cancer.gov/organization/dscb/obtaining/. […] The stock solutions were prepared in dimethyl sulfoxide (DMSO, Sigma-Aldrich, St. Louis, MO, cat. D2650), except for the platinum compounds which were prepared in saline (Quality Biological, Gaithersburg, MD, cat. 114-055-101), at 800-fold the tested concentration and stored at -70 degrees C prior to their use. All drugs and investigational agents were tested over a range starting from a high concentration at or near the clinical Cmax and decreasing in half-log increments. If the clinical Cmax for an agent had not been determined, the highest concentration tested was 10 microM, except for SN-38, which was tested at a high concentration of 1 microM.
Cell Culture. All cells were maintained in an incubator at 37 degrees C and 5% CO2 with 95% humidity. The PDC lines were cultured according to standard operating procedures established by the NCI PDMR (https://pdmr.cancer.gov). Table 3 of the manuscript, lists the cell lines along with the number of the three cell types plated to form the mct-spheroids and media for tumor cell growth. After thawing, all PDC lines, except 997537-175-T-J1-PDC and 415267-285-R-J2-PDC, were cultured in Matrigel-coated flasks prepared with a working solution of 1X Ham's F-12 nutrient mix, without supplementation (Thermo Fisher Scientific, cat. 11765054), 100 U/mL penicillin-streptomycin (Thermo Fisher Scientific, cat. 15140122), and 2.5% Matrigel (Corning Inc., Corning, NY, cat. 354248) for the first three passages. The two PDC lines 997537-175-T-J1-PDC and 415267-285-R-J2-PDC were cultured on uncoated flasks. The 857933-349-R-J2-PDC line was cultured in 6C/Colon 1B media containing advanced DMEM/F-12 (Thermo Fisher Scientific, cat. 12634028), 10 mM HEPES (Thermo Fisher Scientific, cat. 15630080), 1X GlutaMAX supplement (Thermo Fisher Scientific, cat. 35050061), 0.1 mg/mL primocin (InvivoGen, San Diego, CA, cat. ant-pm-2), 10% defined fetal bovine serum, heat inactivated (HyClone Laboratories Inc., Logan, UT, cat. SH30070.03HI), 50% L-WRN conditioned media (ATCC, cat. CRL-3276), 1.25 mM N-Acetyl-L-cysteine (Sigma-Aldrich, cat. A9165), 10 mM nicotinamide (Sigma-Aldrich, cat. N0636), 1X B-27 supplement (Thermo Fisher Scientific, cat. 17504044), 1X N-2 supplement (Thermo Fisher Scientific, cat. […]

[1] = second compound 0.0316 µM, first compound 0.0316 µM
[2] = second compound 0.0316 µM, first compound 0.1 µM
[3] = second compound 0.0316 µM, first compound 0.316 µM
[4] = second compound 0.0316 µM, first compound 1 µM
[5] = second compound 0.0316 µM, first compound 3.16 µM
[6] = second compound 0.0316 µM, first compound 10 µM
[7] = second compound 0.1 µM, first compound 0.0316 µM
[8] = second compound 0.1 µM, first compound 0.1 µM
[9] = second compound 0.1 µM, first compound 0.316 µM
[10] = second compound 0.1 µM, first compound 1 µM
[11] = second compound 0.1 µM, first compound 3.16 µM
[12] = second compound 0.1 µM, first compound 10 µM
[13] = second compound 0.316 µM, first compound 0.0316 µM
[14] = second compound 0.316 µM, first compound 0.1 µM
[15] = second compound 0.316 µM, first compound 0.316 µM
[16] = second compound 0.316 µM, first compound 1 µM
[17] = second compound 0.316 µM, first compound 3.16 µM
[18] = second compound 0.316 µM, first compound 10 µM
[19] = second compound 1 µM, first compound 0.0316 µM
[20] = second compound 1 µM, first compound 0.1 µM
[21] = second compound 1 µM, first compound 0.316 µM
[22] = second compound 1 µM, first compound 1 µM
[23] = second compound 1 µM, first compound 3.16 µM
[24] = second compound 1 µM, first compound 10 µM
[25] = second compound 3.16 µM, first compound 0.0316 µM
[26] = second compound 3.16 µM, first compound 0.1 µM
[27] = second compound 3.16 µM, first compound 0.316 µM
[28] = second compound 3.16 µM, first compound 1 µM
[29] = second compound 3.16 µM, first compound 3.16 µM
[30] = second compound 3.16 µM, first compound 10 µM
[31] = second compound 10 µM, first compound 0.0316 µM
[32] = second compound 10 µM, first compound 0.1 µM
[33] = second compound 10 µM, first compound 0.316 µM
[34] = second compound 10 µM, first compound 1 µM
[35] = second compound 10 µM, first compound 3.16 µM
[36] = second compound 10 µM, first compound 10 µM
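Also: spheroids exposed to compounds for 7 days before viability readout.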
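For viability, T/C in this document: luminescence signal used as surrogate for viable cell content; 100% = DMSO vehicle control viability.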

In the case of Nc1ccn(C2OC(CO)C(O)C2(F)F)c(=O)n1 (centres undefined) + Nc1ccc(C#CCN(C(=O)Cc2ncc(C(F)(F)F)cc2C(F)(F)F)c2ccc(F)cc2)nn1, the IC50 (second compound 0.0316 µM) is reported as over 10 µM, the IC50 (second compound 0.1 µM) is reported as over 10 µM and the IC50 (second compound 0.316 µM) is reported as 10 µM. For the same compound, the IC50 (second compound 1 µM) was over 10 µM, the IC50 (second compound 3.16 µM) was over 10 µM and the IC50 (second compound 10 µM) was over 10 µM. It also gave a viability, T/C [1] of 70.6%, a viability, T/C [2] of 72.4% and a viability, T/C [3] of 61%. It also gave a viability, T/C [4] of 56.2%, a viability, T/C [5] of 58.5% and a viability, T/C [6] of 55.8%. For the same compound, the viability, T/C [7] was 71.6%, the viability, T/C [8] was 70.2% and the viability, T/C [9] was 57.3%. The viability, T/C [10] was 54.5%, the viability, T/C [11] was 49.5% and the viability, T/C [12] was 51.7%. For the same compound, the viability, T/C [13] was 73.8%, the viability, T/C [14] was 80.5% and the viability, T/C [15] was 52.6%. The viability, T/C [16] was 54.8%, the viability, T/C [17] was 59.1% and the viability, T/C [18] was 53.4%. For the same compound, the viability, T/C [19] was 67.7%, the viability, T/C [20] was 65.8% and the viability, T/C [21] was 61.8%. It also gave a viability, T/C [22] of 70.3%, a viability, T/C [23] of 55.6% and a viability, T/C [24] of 51.7%. It also gave a viability, T/C [25] of 72.9%, a viability, T/C [26] of 66.6% and a viability, T/C [27] of 73.7%. For the same compound, the viability, T/C [28] was 64.2%, the viability, T/C [29] was 54.5% and the viability, T/C [30] was 63%. It also gave a viability, T/C [31] of 82.7%, a viability, T/C [32] of 67.6% and a viability, T/C [33] of 61.4%. The viability, T/C [34] was 62.1%, the viability, T/C [35] was 59.4% and the viability, T/C [36] was 67.2%.
In the case of O=c1[nH]cc(F)c(=O)[nH]1 + Nc1ccc(C#CCN(C(=O)Cc2ncc(C(F)(F)F)cc2C(F)(F)F)c2ccc(F)cc2)nn1, the IC50 (second compound 0.0316 µM) is reported as over 10 µM, the IC50 (second compound 0.1 µM) is reported as over 10 µM and the IC50 (second compound 0.316 µM) is reported as over 10 µM. The IC50 (second compound 1 µM) was over 10 µM, the IC50 (second compound 3.16 µM) was over 10 µM and the IC50 (second compound 10 µM) was over 10 µM. For the same compound, the viability, T/C [1] was 109%, the viability, T/C [2] was 103% and the viability, T/C [3] was 101%. The viability, T/C [4] was 91.1%, the viability, T/C [5] was 98.5% and the viability, T/C [6] was 103%. The viability, T/C [7] was 104%, the viability, T/C [8] was 117% and the viability, T/C [9] was 101%. It also gave a viability, T/C [10] of 105%, a viability, T/C [11] of 98.3% and a viability, T/C [12] of 93.7%. The viability, T/C [13] was 105%, the viability, T/C [14] was 105% and the viability, T/C [15] was 87.6%. It also gave a viability, T/C [16] of 98%, a viability, T/C [17] of 103% and a viability, T/C [18] of 97.7%. It also gave a viability, T/C [19] of 113%, a viability, T/C [20] of 107% and a viability, T/C [21] of 102%. For the same compound, the viability, T/C [22] was 90.1%, the viability, T/C [23] was 114% and the viability, T/C [24] was 95.2%. It also gave a viability, T/C [25] of 118%, a viability, T/C [26] of 101% and a viability, T/C [27] of 112%. The viability, T/C [28] was 105%, the viability, T/C [29] was 105% and the viability, T/C [30] was 105%. The viability, T/C [31] was 107%, the viability, T/C [32] was 125% and the viability, T/C [33] was 132%. It also gave a viability, T/C [34] of 116%, a viability, T/C [35] of 105% and a viability, T/C [36] of 112%.
